What was measured:
FGFR1 (h) = FGFR1 (h) (Homo sapiens, UniProt P11362); assay: FGFR1 (enzymatic assay), TR-FRET; assay type: biochemical; details: read-out: FGFR 1 pIC50 (converted)
FGFR3 (h) = FGFR3 (h) (Homo sapiens, UniProt P22607); assay: FGFR3 (enzymatic assay), TR-FRET; assay type: biochemical; details: read-out: FGFR 3 pIC50 (converted)
Source text: Time-Resolved Fluorescence Resonance Energy Transfer (TR-FRET) signal (ex340 nm.

FGFR4 (h) = FGFR4 (h) (Homo sapiens, UniProt P22455); assay: FGFR4 (enzymatic assay), TR-FRET; assay type: biochemical; details: FGFR 4 pIC50, enzymatic assay
Chain of FGFR4 (h) (P22455 22-802): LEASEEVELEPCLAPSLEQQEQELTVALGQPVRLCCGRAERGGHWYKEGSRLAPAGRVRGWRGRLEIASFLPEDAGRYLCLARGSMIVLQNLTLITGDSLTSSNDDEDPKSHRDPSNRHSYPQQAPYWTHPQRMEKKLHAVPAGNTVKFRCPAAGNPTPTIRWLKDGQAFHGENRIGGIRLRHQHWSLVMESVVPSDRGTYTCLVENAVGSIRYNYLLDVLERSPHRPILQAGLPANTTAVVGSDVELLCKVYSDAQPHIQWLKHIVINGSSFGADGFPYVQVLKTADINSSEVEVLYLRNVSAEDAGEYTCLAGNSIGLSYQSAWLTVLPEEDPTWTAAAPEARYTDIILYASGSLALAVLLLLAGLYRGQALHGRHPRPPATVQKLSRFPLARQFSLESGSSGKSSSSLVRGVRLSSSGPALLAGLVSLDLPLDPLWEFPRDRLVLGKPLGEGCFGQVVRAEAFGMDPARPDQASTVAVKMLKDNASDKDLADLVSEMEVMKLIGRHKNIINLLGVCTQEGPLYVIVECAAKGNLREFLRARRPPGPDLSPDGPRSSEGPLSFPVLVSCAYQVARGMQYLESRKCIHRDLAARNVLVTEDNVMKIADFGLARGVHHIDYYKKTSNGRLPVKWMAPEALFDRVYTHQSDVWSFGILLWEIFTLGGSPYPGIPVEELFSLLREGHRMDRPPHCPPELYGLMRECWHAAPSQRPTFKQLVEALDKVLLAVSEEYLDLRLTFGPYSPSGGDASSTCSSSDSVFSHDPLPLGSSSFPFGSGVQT

[1] = target: T1, Ba/F3-FGFR1-transfected cells (Homo sapiens, UniProt P11362); assay: Ba/F3-FGFR1 (minus IL3) cellular proliferation assay, Alamar Blue; assay type: cell-based
T1 construct: BAF3-FGFR1 (MIN IL3) pIC50; other: minus IL3
T1 sequence (P11362 whole entry, change not shown): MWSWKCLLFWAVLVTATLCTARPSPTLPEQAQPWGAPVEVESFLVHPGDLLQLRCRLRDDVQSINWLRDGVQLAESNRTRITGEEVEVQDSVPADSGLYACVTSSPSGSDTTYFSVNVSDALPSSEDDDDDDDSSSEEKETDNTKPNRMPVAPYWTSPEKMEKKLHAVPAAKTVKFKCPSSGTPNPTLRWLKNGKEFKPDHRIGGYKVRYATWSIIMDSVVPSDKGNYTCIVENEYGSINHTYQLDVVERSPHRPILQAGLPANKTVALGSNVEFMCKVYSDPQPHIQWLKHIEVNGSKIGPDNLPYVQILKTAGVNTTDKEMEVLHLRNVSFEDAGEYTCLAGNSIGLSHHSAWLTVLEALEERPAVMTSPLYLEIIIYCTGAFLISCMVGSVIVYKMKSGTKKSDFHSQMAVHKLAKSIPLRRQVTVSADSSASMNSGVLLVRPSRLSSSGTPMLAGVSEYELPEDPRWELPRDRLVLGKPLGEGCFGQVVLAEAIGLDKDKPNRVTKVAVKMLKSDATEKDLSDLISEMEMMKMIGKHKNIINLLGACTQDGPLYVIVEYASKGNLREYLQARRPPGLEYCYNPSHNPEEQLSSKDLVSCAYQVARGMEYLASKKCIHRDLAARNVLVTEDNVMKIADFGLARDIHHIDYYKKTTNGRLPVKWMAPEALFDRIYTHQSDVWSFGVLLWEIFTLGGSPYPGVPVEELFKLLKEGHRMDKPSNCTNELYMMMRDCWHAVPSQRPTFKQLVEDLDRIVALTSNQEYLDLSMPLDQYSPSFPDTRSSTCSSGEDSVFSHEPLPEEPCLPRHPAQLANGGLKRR
Outline: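 Ba/F3 cells transfected with FGFR1 (20000 cells/well) were plated onto compound in phenol red-free RPMI-1640 with 10% FBS, 2 mM L-glutamine and gentamycin, then kept 24 h at 37 °C, 5% CO2. Alamar Blue (resazurin) was added for 4 h and fluorescence read at ex 540/em 590 nm.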

[2] = target: T2, Ba/F3-FGFR3-transfected cells (Homo sapiens, UniProt P22607); assay: Ba/F3-FGFR3 (minus IL3) cellular proliferation assay, Alamar Blue; assay type: cell-based
T2 construct: BAF3-FGFR3 (MIN IL3) pIC50; other: minus IL3
T2 sequence (P22607 whole entry, change not shown): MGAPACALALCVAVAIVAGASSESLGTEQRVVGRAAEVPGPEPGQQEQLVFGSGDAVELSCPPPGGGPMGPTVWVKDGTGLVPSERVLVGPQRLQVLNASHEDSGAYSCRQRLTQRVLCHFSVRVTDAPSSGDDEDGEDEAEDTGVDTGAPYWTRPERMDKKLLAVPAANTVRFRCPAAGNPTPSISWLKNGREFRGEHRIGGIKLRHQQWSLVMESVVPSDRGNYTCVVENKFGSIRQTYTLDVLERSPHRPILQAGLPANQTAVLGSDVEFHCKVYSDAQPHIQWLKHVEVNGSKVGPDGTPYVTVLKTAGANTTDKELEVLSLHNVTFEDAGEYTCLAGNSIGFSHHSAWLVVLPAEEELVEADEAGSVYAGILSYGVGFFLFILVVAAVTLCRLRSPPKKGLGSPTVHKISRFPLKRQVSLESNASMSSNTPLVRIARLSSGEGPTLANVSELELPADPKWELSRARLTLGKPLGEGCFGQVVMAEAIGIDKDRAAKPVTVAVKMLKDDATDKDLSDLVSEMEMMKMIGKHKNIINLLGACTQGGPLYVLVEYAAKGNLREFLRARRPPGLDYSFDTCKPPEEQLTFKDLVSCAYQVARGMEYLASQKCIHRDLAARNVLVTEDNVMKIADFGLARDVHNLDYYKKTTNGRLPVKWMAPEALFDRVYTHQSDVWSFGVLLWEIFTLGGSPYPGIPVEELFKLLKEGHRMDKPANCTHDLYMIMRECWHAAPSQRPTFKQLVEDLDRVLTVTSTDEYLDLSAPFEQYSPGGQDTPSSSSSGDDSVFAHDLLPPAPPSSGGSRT
Outline: (§1)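 Ba/F3 cells transfected with FGFR3 were seeded at 20000 cells/well in phenol red-free RPMI-1640 with 10% FBS over compound in DMSO and kept 24 hours at 37° C, 5% CO2. Alamar Blue (resazurin) was then added for 4 hours and fluorescence read at ex 540/em 590 nm. The counterscreen repeated this with 10 ng/ml murine IL3.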

[3] = test system: Ba/F3-FGFR3-transfected cells; assay: Ba/F3-FGFR3 (plus IL3) cellular proliferation assay, counterscreen with 10 ng/ml murine IL3; assay type: cell-based; details: plus IL3 (10 ng/ml murine IL3, counterscreen); read-out: BAF3-FGFR3 (PLUS IL3) pIC50 (converted)
Outline: as §1

[4] = target: T3, Ba/F3-KDR-transfected cells (Homo sapiens, UniProt P35968); assay: Ba/F3-KDR (minus IL3) cellular proliferation assay, Alamar Blue; assay type: cell-based
T3 construct: BAF3-KDR (MIN IL3) pIC50; other: minus IL3
Outline: (§2)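 Proliferation is measured as Alamar Blue relative fluorescence units following 24 h compound treatment of 20000 cells per well in 10% FBS medium. The IL3-supplemented run serves as a counterscreen under the same conditions.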

[5] = test system: Ba/F3-KDR-transfected cells; assay: Ba/F3-KDR (plus IL3) cellular proliferation assay, counterscreen with 10 ng/ml murine IL3; assay type: cell-based; details: plus IL3 (10 ng/ml murine IL3, counterscreen); read-out: BAF3-KDR (PLUS IL3) pIC50 (converted)
Outline: as §2

[6] = target: Ba/F3-FGFR4-transfected cells (Homo sapiens, UniProt P22455); assay: Ba/F3-FGFR4 cellular proliferation assay, Alamar Blue; assay type: cell-based
Chain of Ba/F3-FGFR4-transfected cells (P22455 whole entry, change not shown): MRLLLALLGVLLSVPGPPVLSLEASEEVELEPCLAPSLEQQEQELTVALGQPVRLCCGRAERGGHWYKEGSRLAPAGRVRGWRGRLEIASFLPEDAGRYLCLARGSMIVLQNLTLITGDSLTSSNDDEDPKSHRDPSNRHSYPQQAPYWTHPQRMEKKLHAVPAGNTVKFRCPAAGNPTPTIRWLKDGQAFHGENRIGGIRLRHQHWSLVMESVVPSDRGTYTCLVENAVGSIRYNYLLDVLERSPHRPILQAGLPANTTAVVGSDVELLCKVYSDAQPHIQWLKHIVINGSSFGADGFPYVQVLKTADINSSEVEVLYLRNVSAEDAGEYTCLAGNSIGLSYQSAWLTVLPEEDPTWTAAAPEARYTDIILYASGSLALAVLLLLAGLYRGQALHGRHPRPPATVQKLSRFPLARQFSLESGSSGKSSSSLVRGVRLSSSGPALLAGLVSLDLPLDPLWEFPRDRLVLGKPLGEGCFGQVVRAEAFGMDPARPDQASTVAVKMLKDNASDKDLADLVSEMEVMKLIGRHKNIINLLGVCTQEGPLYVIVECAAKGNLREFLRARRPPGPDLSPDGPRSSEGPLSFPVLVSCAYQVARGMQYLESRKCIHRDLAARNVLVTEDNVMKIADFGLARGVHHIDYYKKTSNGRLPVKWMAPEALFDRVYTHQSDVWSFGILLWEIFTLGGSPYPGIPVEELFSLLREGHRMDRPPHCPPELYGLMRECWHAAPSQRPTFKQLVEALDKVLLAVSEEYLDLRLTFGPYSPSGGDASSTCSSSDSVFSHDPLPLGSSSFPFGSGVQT
Outline: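 Proliferation of Ba/F3-FGFR4-transfected cells is gauged by Alamar Blue (resazurin) fluorescence after 24 hours of compound treatment in phenol red free RPMI-1640 with 10% FBS.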

Chain of FGFR3 (h) (P22607 23-806): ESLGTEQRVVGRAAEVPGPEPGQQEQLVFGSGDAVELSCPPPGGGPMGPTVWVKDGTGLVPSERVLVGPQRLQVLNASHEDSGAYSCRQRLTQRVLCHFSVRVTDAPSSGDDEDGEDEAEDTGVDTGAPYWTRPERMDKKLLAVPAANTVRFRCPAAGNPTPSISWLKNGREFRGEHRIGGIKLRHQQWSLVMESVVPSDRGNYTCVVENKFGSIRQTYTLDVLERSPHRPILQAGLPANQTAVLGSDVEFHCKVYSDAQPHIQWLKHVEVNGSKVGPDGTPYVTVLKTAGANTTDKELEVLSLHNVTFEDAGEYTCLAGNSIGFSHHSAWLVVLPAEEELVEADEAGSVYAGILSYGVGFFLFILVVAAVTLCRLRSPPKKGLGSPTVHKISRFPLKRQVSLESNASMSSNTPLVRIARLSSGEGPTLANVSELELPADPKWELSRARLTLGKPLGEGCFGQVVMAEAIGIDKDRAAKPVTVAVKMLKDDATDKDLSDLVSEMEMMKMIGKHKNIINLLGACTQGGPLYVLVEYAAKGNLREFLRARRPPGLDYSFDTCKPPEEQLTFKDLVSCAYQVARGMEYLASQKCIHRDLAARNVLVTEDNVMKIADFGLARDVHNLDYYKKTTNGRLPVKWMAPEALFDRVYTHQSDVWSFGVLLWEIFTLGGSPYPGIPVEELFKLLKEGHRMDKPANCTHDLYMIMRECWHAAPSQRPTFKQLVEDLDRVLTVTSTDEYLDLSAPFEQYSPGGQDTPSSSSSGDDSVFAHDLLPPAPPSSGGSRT
Chain of FGFR1 (h) (P11362 22-822): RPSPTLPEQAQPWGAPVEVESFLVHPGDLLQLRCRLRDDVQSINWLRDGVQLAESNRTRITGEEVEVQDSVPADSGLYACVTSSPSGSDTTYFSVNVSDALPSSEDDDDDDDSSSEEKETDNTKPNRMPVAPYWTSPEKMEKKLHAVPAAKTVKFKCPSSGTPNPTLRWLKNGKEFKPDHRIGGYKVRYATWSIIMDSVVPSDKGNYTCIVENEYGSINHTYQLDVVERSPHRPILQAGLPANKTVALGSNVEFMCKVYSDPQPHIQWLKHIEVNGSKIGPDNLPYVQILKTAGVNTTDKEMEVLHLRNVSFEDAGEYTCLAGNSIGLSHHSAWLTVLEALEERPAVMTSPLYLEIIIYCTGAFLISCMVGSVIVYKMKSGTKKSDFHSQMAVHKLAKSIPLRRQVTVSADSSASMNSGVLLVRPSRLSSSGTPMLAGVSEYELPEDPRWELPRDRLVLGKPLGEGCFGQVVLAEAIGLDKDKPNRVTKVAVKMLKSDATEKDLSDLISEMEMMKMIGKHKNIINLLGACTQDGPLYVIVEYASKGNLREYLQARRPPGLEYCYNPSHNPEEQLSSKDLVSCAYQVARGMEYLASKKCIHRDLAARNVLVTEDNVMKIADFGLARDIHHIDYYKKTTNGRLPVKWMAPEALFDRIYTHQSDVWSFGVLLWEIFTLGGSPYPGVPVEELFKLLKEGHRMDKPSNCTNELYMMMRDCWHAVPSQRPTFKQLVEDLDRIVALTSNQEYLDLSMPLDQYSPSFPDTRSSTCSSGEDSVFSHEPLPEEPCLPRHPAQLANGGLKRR

SMILES	IC50 (FGFR1 (h)) [nM]	IC50 (FGFR3 (h)) [nM]	IC50 (FGFR4 (h)) [nM]	BAF3-FGFR1 (MIN IL3) pIC50 [1]	BAF3-FGFR3 (MIN IL3) pIC50 [2]	IC50 [3] [nM]	BAF3-KDR (MIN IL3) pIC50 [4]	IC50 [5] [nM]	BAF3-FGFR4 pIC50 [6]
COc1ccc(Cl)c(N(CC2CCC(=O)N2)c2ccc3ncc(-c4cnn(C)c4)nc3n2)c1Cl (single isomer, unassigned) [Compound 90]	166	126	~912	5.04	5.19	> 10000	<5	> 10000	<5
COc1cc(OC)c(F)c(N(CCNC2COC2)c2ccc3ncc(-c4cnn(C)c4)nc3n2)c1F (single isomer, unassigned) [Compound 162]	1.17	1.41	2.57	7.88	7.95	> 10000	6.61	> 10000	~7.56
COc1cc(OC)c(F)c(N(CCN(C2COC2)C2COC2)c2ccc3ncc(-c4cnn(C)c4)nc3n2)c1F (single isomer, unassigned) [Compound 163]	0.977	2.63	3.24	7.82	7.34	> 10000	6.21	> 10000	7.32
COc1cc(/N=c2\ccc3ncc(-c4cnn(C)c4)nc3n2CC2CCOC2)c(F)c(OC)c1 (single isomer, unassigned) [Compound 169]	~0.933	1.02	0.977	7.68	7.44	> 10000	6.40	> 10000	7.20
COc1cc(OC)c(F)c(N(CC2CCOC2)c2ccc3ncc(-c4cnn(C)c4)nc3n2)c1 (single isomer, unassigned) [Compound 170]	2.34	2.19	4.9	6.92	6.78	> 10000	5.56	> 10000	6.49
COc1cc(/N=c2\ccc3ncc(-c4cnn(CC(C)(C)O)c4)nc3n2CC(C)(C)O)c(F)c(OC)c1 (single isomer, unassigned) [Compound 207]	0.813	1.17	3.16	7.45	~7.57	> 10000	6.11	> 10000	6.69
COc1cc(OC)c(F)c(N(CC(C)(C)O)c2ccc3ncc(-c4cnn(CC(C)(C)O)c4)nc3n2)c1 (single isomer, unassigned) [Compound 208]	3.63	3.72	18.6	6.84	~7.15	> 10000	5.57	> 10000	6.16
COc1cc(OC)c(F)c(N(CC2CCC(=O)N2CCO)c2ccc3ncc(-c4cnn(C)c4)nc3n2)c1 (single isomer, unassigned) [Compound 218]	3.24	4.17	3.89	7.51	~7.64	> 10000	5.64	> 10000	6.99
COc1cc(/N=c2\ccc3ncc(-c4cnn(C)c4)nc3n2CC2CCC(=O)N2CCO)c(F)c(OC)c1 (single isomer, unassigned) [Compound 219]	0.813	1.29	1.91	7.77	7.66	> 10000	6.38	> 10000	6.78
COc1ccc(Cl)c(N(CC2CCC(=O)N2)c2ccc3ncc(-c4cnn(C)c4)nc3n2)c1Cl (stereo not drawn) [Compound 93]	66.1	77.6	794	5.59	~5.59	> 10000	<5	> 10000	5.02
COc1cc(O)c(F)c(N(Cc2ncc[nH]2)c2ccc3ncc(-c4cnn(C)c4)nc3n2)c1 [Compound 96]	0.741	1.07	1.78	8.08	~8.09	> 10000	5.89	> 10000	7.16
COc1cc(OC)cc(N(Cc2ncc[nH]2)c2ccc3ncc(-c4cn[nH]c4)nc3n2)c1 [Compound 141]	0.603	0.457	0.603	8.27	~8.13	> 10000	5.87	> 10000	7.40
COc1cc(OC)cc(N(CC2COC2)c2ccc3ncc(-c4cnn(C)c4)nc3n2)c1 [Compound 142]	16.2	5.75	30.2	5.49	5.30	> 10000	<5	> 10000	5.10
COc1cc(/N=c2\ccc3ncc(-c4cnn(C)c4)nc3n2CC2COC2)c(F)c(OC)c1 [Compound 143]	1.26	0.759	1.02	5.48	5.42	> 10000	<5	> 10000	5.29
COc1cc(OC)c(F)c(N(CC2COC2)c2ccc3ncc(-c4cnn(C)c4)nc3n2)c1 [Compound 144]	3.89	1.74	5.25	6.44	6.33	> 10000	5.19	> 10000	6.13
COc1cc(OC)c(F)c(N(Cc2nccn2CCO)c2ccc3ncc(-c4cnn(C)c4)nc3n2)c1 [Compound 145]	3.24	4.68	10.5	7.26	7.04	> 10000	5.63	> 10000	6.61
COc1cc(OC)cc(N(CCN2CCOCC2)c2ccc3ncc(-c4cnn(C)c4)nc3n2)c1 [Compound 146]	6.76	4.9	17.8	6.87	~7.14	> 10000	5.28	> 10000	~6.58
COc1cc(/N=c2\ccc3ncc(-c4cnn(C)c4)nc3n2CCN2CCOCC2)cc(OC)c1 [Compound 147]	1.51	1.62	3.24	7.28	7.23	> 10000	6.17	> 10000	6.85

From patent US9309242B2, “Substituted pyrido[2,3-b]pyrazines as FGFR kinase inhibitors” (priority 2011, dated 2016)
